Experimental data: article PMC2862773 (International journal of biological macromolecules, 2010)
pIC50: −log10 of the molar value. Entries after “also recorded” stand apart in the source; their conditions may differ.

Assays:
[1] = biological target: E. coli ATP synthase (purified F1 or membrane bound F1Fo) (Escherichia coli, UniProt P0ABA6+P0ABB0+P0ABB4); assay type: biochemical; conditions: for Residual ATPase Activity (%): left over ATPase activity at maximal inhibition
[2] = test system: E. coli strain pBWU13.4/DK8; assay: Growth yield in limiting glucose medium in presence of bioflavonoid compounds; assay type: cell-based, Escherichia coli; conditions: OD595 after ~20 hours growth at 37 °C; control 100, null 45
[3] = biological target: E. coli ATP synthase (purified F1 or membrane bound enzyme) (Escherichia coli, UniProt P0ABA6+P0ABB0+P0ABB4); assay: Reversal of ATPase inhibition by dilution or centrifuge columns; assay type: biochemical; conditions: dilution to non-inhibitory concentration or twice through centrifuge columns
[4] = test system: rat brain and liver mitochondrial F1Fo ATP synthase; conditions: cited from earlier work
[5] = test system: cultured human lymphoblastoid and other mammalian cells; conditions: not in ρ° cells; cited from earlier work
[6] = test system: E. coli enzyme mutants αR283A/Q, αE284A/Q, βS263A/Q, γT273A/Q, γQ274A/K, γT277A/Q, γE278A/Q; assay: Inhibition of polyphenol binding pocket mutants of E. coli enzyme; assay type: biochemical, Escherichia coli; conditions: unpublished results of the authors
E. coli ATP synthase = conditions: cited from earlier work
[7] = test system: androgen-responsive human prostate carcinoma cells (LNCaP); conditions: concentrations of up to 50μmol/L/day; cited from earlier work
[8] = test system: normal human prostate cells; conditions: at similar concentrations (up to 50μmol/L/day); cited from earlier work
[9] = purified F1 or membrane bound F1Fo
[10] = mitochondrial F1Fo ATP synthase

| Structure (SMILES) | Residual ATPase Activity (%) ([1]; 60 min preincubation) | Extent of inhibition of ATPase activity, in words [1, 9] | Growth yield in limiting glucose (%) [2] [%] | other results |
| --- | --- | --- | --- | --- |
| Oc1cc(O)c2c(c1)O[C@H](c1ccc(O)c(O)c1)[C@H](O)C2 [(−)-Epicatechin] | 0 | complete inhibition | 53 |  |
| NC12CC3CC(CC(C3)C1)C2 [Amantadin, reference compound] | 0 | complete inhibition | 51 | Inhibition of ATPase activity (maximal extent) ([1]; purified F1 or membrane bound F1Fo, 60 min preincubation): ~ 100% |
| O=c1cc(-c2ccc(O)cc2)oc2cc(O)cc(O)c12 [Apigenin] | 60 |  |  | Reversibility of inhibition [3]: reversible; pIC50 [4, 10]: ~4.00 |
| O=c1cc(-c2ccccc2)oc2cc(O)c(O)c(O)c12 [Baicalein] | 0 | complete inhibition | 48 |  |
| O=c1cc(-c2ccccc2)oc2cc(O)cc(O)c12 [Chrysin] | 40 |  | 73 |  |
| O=c1c(-c2ccc(O)cc2)coc2cc(O)ccc12 [Daidzein] |  | insignificant | 96 |  |
| COc1ccc(-c2cc(=O)c3c(O)cc(O[C@@H]4O[C@H](CO[C@@H]5O[C@@H](C)[C@H](O)[C@@H](O)[C@H]5O)[C@@H](O)[C@H](O)[C@H]4O)cc3o2)cc1O [Diosmin] |  | partial inhibition |  |  |
| O=c1c(O)c(-c2ccccc2)oc2cc(O)cc(O)c12 [Galangin] |  | insignificant; also recorded: no inhibition | 93 |  |
| O=c1c(-c2ccc(O)cc2)coc2cc(O)cc(O)c12 [Genistein] |  |  | 87 |  |
| COc1ccc([C@@H]2CC(=O)c3c(O)cc(O[C@@H]4O[C@H](CO[C@@H]5O[C@@H](C)[C@H](O)[C@@H](O)[C@H]5O)[C@@H](O)[C@H](O)[C@H]4O)cc3O2)cc1O [Hesperidin] | 40 | partial inhibition | 76 |  |
| O=c1cc(-c2ccc(O)c(O)c2)oc2cc(O)cc(O)c12 [Luteolin] |  | insignificant | 87 |  |
| O=c1c(O)c(-c2ccc(O)cc2O)oc2cc(O)cc(O)c12 [Morin hydrate] | 0 | complete inhibition | 46 |  |
| CC[C@H]1/C=C/C=C/C[C@@H](C)[C@H](O)[C@@](C)(O)C(=O)[C@@H](C)[C@H](O)[C@@H](C)C(=O)[C@@H](C)[C@H](O)[C@@H](C)/C=C/C(=O)O[C@@H]2[C@H](C)[C@H](CC1)O[C@]1(CC[C@H](C)[C@H](C[C@@H](C)O)O1)[C@H]2C [Oligomycin] |  |  |  | Time to apoptotic suicide response [5]: 12 to 18 h |
| O=c1c(O)c(-c2ccc(O)c(O)c2)oc2cc(O)cc(O)c12 [Quercetin] |  |  |  | Inhibition of mutant enzymes [6]: loss of inhibition; pIC50 (E. coli ATP synthase; E. coli ATP synthase): ~4.48; Reversibility of inhibition (E. coli ATP synthase; binds non-covalently at the polyphenol binding site): reversible; Inhibition of E. coli ATP synthase (E. coli ATP synthase): ~ 80%; pIC50 [4, 10]: 4.19 to 4.26 |
| CC(N)C12CC3CC(CC(C3)C1)C2 (stereo not drawn) [Rimantadine, reference compound] | 0 | complete inhibition | 52 |  |
| C[C@@H]1O[C@@H](OC[C@H]2O[C@@H](Oc3c(-c4ccc(O)c(O)c4)oc4cc(O)cc(O)c4c3=O)[C@H](O)[C@@H](O)[C@@H]2O)[C@H](O)[C@H](O)[C@H]1O [Rutin hydrate] |  |  | 87 |  |
| COc1cc(C2Oc3cc([C@H]4Oc5cc(O)cc(O)c5C(=O)[C@@H]4O)ccc3OC2CO)ccc1O (stereo partly drawn) [Silibinin] | 0 | complete inhibition | 47 |  |
| O=c1c(-c2ccc(O)cc2)coc2cc(O[C@@H]3O[C@H](CO)[C@@H](O)[C@H](O)[C@H]3O)cc(O)c12 [genistin] |  |  |  | Inhibition of ATPase activity ([4]; up to 140 μM): did not inhibit |
| Oc1cc(O)cc(/C=C/c2ccc(O)c(O)c2)c1 [piceatannol] |  |  |  | Inhibition of mutant enzymes [6]: loss of inhibition |
| Oc1ccc(/C=C/c2cc(O)cc(O)c2)cc1 [resveratrol] |  |  |  | Inhibition of mutant enzymes [6]: loss of inhibition; Time to inhibition [4, 10]: 1 to 2 min; Effect on apoptosis [7]: stimulation of apoptosis; Effect on rate of cell death [8]: no effect |
